Values quoted from earlier work, collected in patent US7750039B2, “Indoles are cannabinoid receptor ligands” (priority 2004, dated 2010).

What was measured:
animal models of pain = details: acute thermal pain, persistent pain, inflammatory pain, neuropathic pain
[1] = tested on: CB1 receptor-mediated CNS side effects; details: at fully efficacious doses
rodent models of pain = details: neuropathic, incisional, chronic and acute inflammatory pain
[2] = tested on: rat formalin model of persistent pain
microglial = details: in vitro; blocked by SR144528
[3] = tested on: CB1 receptor knockout mice
[4] = tested on: CB2 receptor knockout mice
[5] = tested on: apolipoprotein E knockout mice; details: low doses, inhibited by SR144528
[6] = tested on: ovariectomy-induced bone loss in mice; details: model for post-menopausal osteoporosis

## CN1CCCCC1Cn1cc(C(=O)c2cc([N+](=O)[O-])ccc2I)c2ccccc21 (centres unmarked) [AM-1241]
Animal models of pain
  analgesic efficacy: robust analgesic efficacy
[1]
  CB1 receptor-mediated CNS side effects: devoid of typical CB1 receptor-mediated CNS side effects

## COc1ccc2c(c1)c(CCN1CCOCC1)c(C)n2C(=O)c1cccc(Cl)c1Cl [GW405833]
Rodent models of pain
  efficacy in pain models: efficacious
[1]
  CB1 receptor-mediated CNS side effects: devoid of typical CB1 receptor-mediated CNS side effects

## CCCCCCC(C)(C)c1cc(OC)c([C@@H]2C=C(CO)[C@@H]3C[C@H]2C3(C)C)c(OC)c1 [HU-308]
[2]
  antinociceptive response: elicits an antinociceptive response

## CCCC(C)(C)c1ccc2c(c1)OC(C)(C)[C@@H]1CC=C(C)C[C@@H]21 [JWH-133]
microglial
  β-amyloid-induced microglial activation and neurotoxicity: abrogated

## (−)-Δ^9-Tetrahydrocannabinol [Δ^9-THC]
[3]
  analgesic efficacy: retains some analgesic efficacy
[4]
  immunosuppressive effects: absent
[5]
  progression of atherosclerotic lesions: slowed the progression of atherosclerotic lesions

## SR144528
osteoclast
  osteoclast activity: inhibit osteoclast activity
[6]
  ovariectomy-induced bone loss: reverse ovariectomy-induced bone loss
